Laboratory results: patent US12251383B2, “Methods and compositions for KRAS inhibitors” (The Board of Regents of the University of Texas System, priority 2019, dated 2025)

Columns and labels:
[1] = biological target: KRAS^G12C in the GTP state (Homo sapiens, UniProt P01116, G12C); assay: MST binding, GTP-state KRAS G12C
From the text: (§1) FIGS. 1A-1D show representative data for the predicted binding mode and measured affinity of disclosed compound 11 to KRAS. (FIG. 1A) Structure of the catalytic domain of KRAS used for the virtual screening. Lobe1 (residues 1-86) and lobe2 (residues 87-166) are highlighted in different colors, as well as switches 1 (residues 30-40) and 2 (residues 60-75). The location of the target allosteric pocket p1 is indicated. (FIG. 1B) Chemical structure of compound 11. (FIG. 1C) Predicted binding pose of compound 11, with the key residues that make polar or vdW contacts with the ligand labeled. (FIG. 1D) Microscale thermophoresis (MST) experiments indicating direct binding of compound 11 to KRAS, along with dissociation constants (KD) derived from the curves. Changes in fluorescence upon titration of […] KRAS with increasing concentration of compound are shown: KRAS^WT (red), KRAS^G12C (green), KRAS^G12D (purple) and KRAS^Q61M (blue), each bound to the non-hydrolyzable GTP analogue, guanylyl imidodiphosphate (GNP). The same experiments indicated no binding to GDP-bound KRAS^G12D and KRAS^WT as well as Rap1B, which was used as control. […]

[2] = biological target: GTPKRAS^WT (Homo sapiens, UniProt P01116); assay: Microscale thermophoresis (MST) binding, GTP-state (GNP-bound) KRAS WT
Chain of GTPKRAS^WT (P01116 1-188 isoform P01116-2): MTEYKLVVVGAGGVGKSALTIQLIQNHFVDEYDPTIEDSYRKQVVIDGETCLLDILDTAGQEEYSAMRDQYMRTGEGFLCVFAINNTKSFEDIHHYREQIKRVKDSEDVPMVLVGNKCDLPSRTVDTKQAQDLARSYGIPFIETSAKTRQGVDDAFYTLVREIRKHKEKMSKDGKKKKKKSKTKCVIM
From the text: as §1

[3] = biological target: KRAS^Q61H in the GTP state (Homo sapiens, UniProt P01116, Q61H); assay: MST binding, GTP-state KRAS Q61H
Chain of KRAS^Q61H in the GTP state (P01116 1-188 isoform P01116-2 Q61H): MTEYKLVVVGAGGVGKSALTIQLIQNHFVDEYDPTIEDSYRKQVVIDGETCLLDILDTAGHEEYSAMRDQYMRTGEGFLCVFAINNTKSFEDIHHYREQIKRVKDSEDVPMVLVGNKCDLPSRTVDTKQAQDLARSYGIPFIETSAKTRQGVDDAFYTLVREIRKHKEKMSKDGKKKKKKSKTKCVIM

[4] = biological target: KRASWT (Homo sapiens, UniProt P01116); assay: Nucleotide exchange assay (intrinsic and SOS-mediated); assay type: biochemical
Chain of KRASWT (P01116 1-188 isoform P01116-2): as the sequence (P01116 1-188 isoform P01116-2) above
Protocol: Nucleotide exchange and release assays. Loading of fluorescent-labeled GDP (BODIPY-GDP; BGDP from hereon) to KRAS was conducted following previous reports (23, 47), with minor modifications. Purified KRAS was buffer-exchanged in NAP-5 column (GE Life Sciences) in low Mg^2+ buffer (25 mM Tris pH 7.5, 50 mM NaCl, and 0.5 mM MgCl2). The eluate was incubated with 10-fold molar excess of BGDP (Life Technologies) in the presence of 5 mM EDTA and 1 mM DTT for 1.5 h at 20° C. in the dark. Then 10 mM MgCl2 was added and the solution was incubated for 30 min at 20° C. Free nucleotide was removed by gel filtration using a PD-10 column (GE Life Sciences) that had been equilibrated with the reaction buffer (25 mM Tris-HCL pH 7.5, 50 mM NaCl, 1 mM MgCl2, and 1 mM DTT). The concentration of ^BGDPKRAS was determined using Bradford assay and a BGDP standard curve. Then the effect of ligands on the intrinsic rate of nucleotide release was monitored using the decrease in fluorescence with time as BGDP dissociates from KRAS in a 100 μL reaction mixture (96-well plate) of 0.5 μM B^GDPKRAS, 100 μM GTP and varying concentrations of ligand (0 to 25 μM); GTP was added just before measurements. To measure the rate of SOS-mediated nucleotide release, 0.5 μM SOS (residues 564-1049, Cytoskeleton Inc) was added after adding GTP, and fluorescence was immediately read (excitation: 485 nm, emission: 510 nm) using Tecan Infinite M200 plate reader. Intrinsic and SOS-mediated nucleotide exchange rates were monitored with the fluorescence intensity increase of BGTP as it displaces GDP from KRAS. A 100 μL reaction mixture was used containing 0.5 μM each of ^GDPKRAS, BGTP (and SOS) plus varying concentrations of ligand (0 to 25 μM); BGTP was added just before measurements. Experiments were conducted with minimal light and the reaction was monitored for 2 h at room temperature. Fluorescence intensities were normalized at 120 s and the traces were fit with linear or single exponential functions (Igor Pro, Wavemetrics).
The effect of compound 11 on intrinsic and GEF-dependent nucleotide release and exchange reactions was determined. […] In particular, 11 decreased the intrinsic rate of nucleotide exchange by ˜10-fold at >10 μM (Fig S4, top-left), but it has no effect on intrinsic nucleotide release (Appendix I, Figure S4, bottom-left). […] Since GTP hydrolysis is unlikely to occur within the timescale of the experiments disclosed herein (2, 3), a plausible interpretation of the former would be compromised GTP loading. This is possible if, for example, the ligand binds to the nucleotide free ‘transition state’ conformation of KRAS and induces reorganization of active site residues. […]

[5] = tested on: KRAS; assay: MST affinity for KRAS (G12D and other KRAS mutants); assay type: binding, human; conditions: MST KD

Chain of KRAS^G12C in the GTP state (P01116 1-188 isoform P01116-2 G12C): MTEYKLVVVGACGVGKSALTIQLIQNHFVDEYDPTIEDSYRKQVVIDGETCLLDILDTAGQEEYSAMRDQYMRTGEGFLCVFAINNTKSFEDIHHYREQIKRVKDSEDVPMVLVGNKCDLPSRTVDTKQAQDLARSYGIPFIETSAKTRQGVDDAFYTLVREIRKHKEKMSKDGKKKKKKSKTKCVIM

Structure (SMILES) | Kd [1] | Kd [2] | Kd [3] | effect on SOS-mediated nucleotide exchange rate ([4]; SOS-mediated) | decrease of rate of nucleotide exchange ([4]; SOS-mediated (Fig S4 top-right)) | effect on intrinsic nucleotide exchange rate ([4]; intrinsic) | decrease of intrinsic rate of nucleotide exchange ([4]; intrinsic, at >10 μM) | weaker affinity for KRAS than compound 11 [5]
Cc1nn2c(N3CCN(CCO)CC3)cc(-c3ccccc3)nc2c1-c1ccccc1 [Compound 11, 2-[4-(8-methyl-3,9-diphenyl-2,6,7-triazabicyclo[4.3.0]nona-2,4,7,9-tetraen-5-yl)piperazin-1-yl]ethanol] | 0.4 to 0.7 µM | ~0.3 µM | 0.4 to 0.7 µM | slightly reduced | 1.1 fold | slightly reduced | ~10 fold | 
Cc1cc(N2CCN(CCO)CC2)n2nc(C)c(-c3ccccc3)c2n1 [Compound 13] |  |  |  |  |  |  |  | 6.5-7.1 fold
